The target of data set [1] is T1, Bovine brain tubulin (Bos taurus, UniProt P81947+Q6B856).
T1 construct: purchased Cytoskeleton, Denver, Colo; host or cells: brain tissue
In words: In vitro microtubule polymerization assay (Example 6). The class given is biochemical. The note with it: absorbance at 340 nm, 15 min; for inhibition of tubulin polymerization: 10 μM. On the procedure:
The absorbance at 340 nm was monitored every 1 min for 15 min by the SYNERGY 4 Microplate Reader (Bio-Tek Instruments, Winooski, Vt.). The spectrophotometer was set at 37° C. for tubulin polymerization.

The test system of data set [2] is A375RF21 cells. In words: Apoptosis detection (Annexin V-FITC / propidium iodide). The note with it: A375RF21, 48 h, Annexin V / propidium iodide flow cytometry. For orientation: In flow cytometry, cells or beads pass a laser one at a time.
The next data set has as its system PC-3. In words: Apoptosis (cytoplasmic DNA-histone complex formation) in PC-3. The class given is cell-based, human. Conditions: PC-3, 0.8 to 600 nmol/L, 24 h.
A further data set has as its system PC-3 tumors. In words: PC-3 xenograft in nude mice. Conditions: day 1 and 9, end point day 19.
The subject of another data set is PC-3/TxR. The data set can be described thus: Apoptosis (cytoplasmic DNA-histone complex formation) in PC-3/TxR. It counts as cell-based, human. The note with it: 0.8 to 600 nmol/L, 24 h.
The next data set concerns PC-3/TxR tumors. The note with it: PC-3/TxR xenograft, day 1 and 9; for Tumor size, End: end point day 19.
Data set [3] has as its system A375RF21 cells. In words: Cell cycle analysis (flow cytometry) in A375RF21. The class given is cell-based, human. The note with it: for G2/M arrest: A375RF21, 20 nM. As for the experimental part: (§1) Flow cytometry analysis was performed as described before (Wang Z, Chen J, Wang J, et al. “Novel tubulin polymerization inhibitors overcome multidrug resistance and reduce melanoma lung metastasis.” Pharm. Res. (2012) 29: 3040-3052). To determine cell cycle distributions in the G2 and M phases (FIG. 23), cells were harvested with trypsin, stained using antiphospho-histone H3-AlexaFluor® 488 antibody on ice for one hour in the dark, followed by stained using PI/RNase solution for 30 minutes at room temperature in the dark per the manufacturer's instructions (#FCCH025103, EMD Millipore Corporation, Ballerica, Mass.). Data were further processed and graphs were prepared using the Modfit 2.0 program (Verity Software House, Topsham, Me.).

A further data set concerns A375. In words: Cell culture cytotoxicity (SRB) assay, A375. It counts as cell-based, human. The note with it: Table 9, SRB, 48 h; read-out: IC50 ± SEM (nM) A375.
In the next data set the test system is B16-F1 melanoma cells. In words: B16-F1 melanoma colony formation assay in soft agar. The class given is cell-based, mouse. The note with it: 14 days. On the procedure: B16-F1 melanoma cells were plated at a colony-forming density (2000 cells per well on six-well plates) on top of 0.8% base agar. Cells were grown in 0.4% agar together with DMEM medium supplemented with fetal bovine serum and an antibiotic-antimycotic solution at 37° C. in an atmosphere of 95% air and 5% CO2. […] Compounds were added to the media from 1 mM DMSO stock solutions, and a corresponding dilution of DMSO was used as control. Cells were grown for 14 days. Plates were photographed, and the number of colonies was measured by Artek 880 Automated Colony Counter (Artek Systems Corporation, Farmingdale, N.Y.).

In data set [4] the test system is melanoma nodules in the lungs. The data set can be described thus: Melanoma lung metastasis model in mice. The class given is in vivo, mouse. The note with it: i.p. injection 5 days per week for 2 weeks (n=8 per group). From the text:
Panel A: Representative photos of lungs with melanoma nodules (black dots, n=8 per group). Treatment was i.p. injection 5 days per week for 2 weeks. Panel B: Number of melanoma nodules on each lung. Points: individual nodule number; long line in the middle: mean; short line on the top and bottom: 95% confidence intervals ** and ##: p<0.01. Panel C: Mouse body weight changes during the experiment. Points: means; bars: SD. Control: vehicle solution only.

Data set [5] relates to three melanoma cell lines and four human prostate cancer cell lines. In words: Antiproliferative activity, average over melanoma and prostate cancer cell lines. It counts as cell-based. Conditions: for IC50: Homo sapiens, discussion of Tables 8-10.
Data set [6] has as its system A375 human melanoma xenograft. The note with it: 12da 25 mg/kg; Wang Z et al., Pharm. Res. 29(11); cited from earlier work.
Another data set relates to A375RF21. In words: In vitro combination assay (combination index) in A375RF21. The note with it: combination with vemurafenib. It counts as cell-based, human.
In data set [7] the test system is pAKT/tAKT and pERK in A375RF21 cells. The data set can be described thus: Western blot analysis in A375RF21. The class given is cell-based, human. On the procedure: (§2) At the indicated time treatment, human melanoma A375RF21, MDA-MB-435 or WM164 cells were collected to investigate relevant cascade protein or apoptosis markers by western blots. Total protein was extracted by lysing cells with RIPA buffer (Sigma-Aldrich, St. Louis, Mo.) containing phosphatase-proteinase inhibitor cocktail (Sigma-Aldrich, St. Louis, Mo.). General protein concentration was then determined by BCA method using kit (Sigma-Aldrich, St. Louis, Mo.). The cell lysates were diluted to equal general protein concentration using Laemmli loading buffer (Bio-Rad, Hercules, Calif.) and boiled for 5 min to denature the protein. Then group samples containing 10 μg general proteins were loaded to each well of 4-15% Tris-HCl pre-cast polyacrylamide gel (Bio-Rad, Hercules, Calif.) for electrophoresis and subsequently transferred to 0.2 μm nitrocellulose membrane (Bio-Rad, Hercules, Calif.). […] Target proteins were detected by incubating with 1× LumiGLO® reagent (Cell Signaling, #7003) for one minute and exposed to x-ray film. The films were scanned with grey scale and lane intensities were quantified with the ImageJ software (NIH, Bethesda, Md., USA).

In another data set the test system is pAKT/tAKT in WM164 cells. The data set can be described thus: Western blot analysis in WM164. The class given is cell-based, human. Conditions: WM164, 48 h. On the procedure: as §2
In a further data set the test system is NCl/ADR-RES. In words: In vitro growth inhibition, NCI/ADR-RES. Conditions: Homo sapiens, Table 9, read-out: IC50 ± SEM (nM) NCl/ADR-RES. It counts as cell-based.
In data set [8] the test system is pAKT/tAKT in MDA-MB-435 cells. The data set can be described thus: Western blot analysis in MDA-MB-435. The class given is cell-based, human. The note with it: MDA-MB-435, 48 h. As for the experimental part: as §2
A further data set concerns OVCAR-8. In words: In vitro growth inhibition, OVCAR-8. The note with it: Homo sapiens, OVCAR-8; Table 9; read-out: IC50 ± SEM (nM) OVCAR-8. It counts as cell-based.
The test system of data set [9] is A375 human melanoma xenograft. In words: A375 human melanoma xenograft in SHO nude mice. The class given is in vivo. Conditions: 12fb 25 mg/kg, 31 days. In general terms: In xenograft studies the graft and the host belong to different species.
Protocol: SHO nude mice bearing an A375 human melanoma xenograft (n=5 per group). Each mouse received 2.5×10^6 cells by s.c. injection into the flank. 30 μL i.p. daily treatments were started when the tumor size reached ˜150 mm^3. Control, vehicle solution only; points, means; bars, SD.
In vivo evaluation of efficacy. […] The cell suspension (100 μL) was injected subcutaneously in the right dorsal flank of each mouse. When tumor size reached about 100-150 mm^3, about 7 days after cell inoculation, all mice bearing tumors were divided into control and treatment groups based on tumor size (n=5 per group). Each group had similar average tumor size. Mice in control groups (negative control) were injected intraperitoneally with 50 μL vehicle solution only or DTIC at 60 mg/kg (positive control) once daily. Tumor volume was measured every 2 days with a traceable electronic digital caliper (Fisher Scientific, Inc., Pittsburgh, Pa.) and calculated using the formula a×b^2×0.5, where a and b represented the larger and smaller diameters, respectively. Tumor volume was expressed in cubic millimeters. Data were expressed as mean±SE for each group and plotted as a function of time. […] Animal activity and average body weight of each group were monitored during the entire experiment period to assess compound toxicity. […]
The test system of data set [10] is Bovine brain tubulin. In words: HTS-tubulin polymerization assay (Example 1). The note with it: 20 μM, purified-protein assay.
Data set [11] concerns A375 cells. The data set can be described thus: Cell cycle analysis (flow cytometry) in A375. It counts as cell-based, human. As for the experimental part:
as §1

Data set [12] relates to A375RF21 cells. The data set can be described thus: Cell proliferation MTS assay, vemurafenib-resistant A375RF21. (In general: Formazan colour is commonly taken as a measure of viable cells.)
Description: (§3) Cell proliferation viability was investigated using MTS or SRB assay as described previously. An in vitro study of the combination of vemurafenib and the tubulin inhibitors was designed and conducted using CalcuSyn software (Biosoft, Ferguson, Mo.) with five duplicates of each set of treatment. Drug concentrations were selected based on the IC50 value of each drug tested from a pilot study.
Data set [13] deals with A375 cells. In words: Cell proliferation MTS assay, parental A375. Conditions: Homo sapiens, A-375, read-out: IC50 for proliferation inhibition.
Description: as §3

Where two headings read alike, the source gives them in different places. A value given as a limit tells only on which side of the number the result lay.

T1 sequence (P81947 whole entry): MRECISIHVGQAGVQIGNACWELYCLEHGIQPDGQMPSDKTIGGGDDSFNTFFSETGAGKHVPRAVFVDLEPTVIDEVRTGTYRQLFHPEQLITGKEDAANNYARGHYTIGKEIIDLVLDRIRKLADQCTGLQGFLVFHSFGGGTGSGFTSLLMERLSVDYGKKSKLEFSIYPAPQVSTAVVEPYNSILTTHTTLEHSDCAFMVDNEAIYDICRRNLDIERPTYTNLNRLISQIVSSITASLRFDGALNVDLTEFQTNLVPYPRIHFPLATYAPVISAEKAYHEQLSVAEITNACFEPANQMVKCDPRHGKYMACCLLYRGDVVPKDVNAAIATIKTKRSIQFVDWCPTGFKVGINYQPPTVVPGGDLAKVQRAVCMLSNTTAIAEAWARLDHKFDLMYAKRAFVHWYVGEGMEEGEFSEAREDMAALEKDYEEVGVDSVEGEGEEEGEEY
T1 sequence (Q6B856 whole entry): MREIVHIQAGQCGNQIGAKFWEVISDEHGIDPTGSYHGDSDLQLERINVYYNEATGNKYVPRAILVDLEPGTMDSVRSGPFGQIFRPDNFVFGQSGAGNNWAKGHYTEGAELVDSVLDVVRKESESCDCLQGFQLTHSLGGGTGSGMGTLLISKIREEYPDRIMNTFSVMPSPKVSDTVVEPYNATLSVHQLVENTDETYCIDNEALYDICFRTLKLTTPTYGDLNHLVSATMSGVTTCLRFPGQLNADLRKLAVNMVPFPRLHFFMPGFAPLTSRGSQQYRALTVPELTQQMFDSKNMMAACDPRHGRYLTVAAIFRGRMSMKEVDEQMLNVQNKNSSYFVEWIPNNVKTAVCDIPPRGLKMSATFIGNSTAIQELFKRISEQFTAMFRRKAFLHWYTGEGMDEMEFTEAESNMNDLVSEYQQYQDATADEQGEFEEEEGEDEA

Consider `Cc1ccc(-c2nc(C(=O)c3ccc(F)cc3)c[nH]2)cc1` [12db, (4-fluorophenyl)(2-(p-tolyl)-1H-imidazol-4-yl)methanone], for which the “inhibition of tubulin polymerization” value on Bovine brain tubulin [1] was “inhibited tubulin polymerization”.
With `CC(=O)O[C@@]12CO[C@@H]1C[C@H](O)[C@@]1(C)C(=O)[C@H](O)C3=C(C)[C@@H](OC(=O)[C@H](O)[C@@H](NC(=O)OC(C)(C)C)c4ccccc4)C[C@@](O)([C@@H](OC(=O)c4ccccc4)[C@H]21)C3(C)C` [Docetaxel, reference compound], the “cell apoptosis or death (sum of Q1, Q2 and Q4)” value with A375RF21 cells [2] is recorded as 6.4±3.0%. The results for the “induction of cell apoptosis (DNA-histone complexes)” value with PC-3 and in the data set with PC-3/TxR were “highly potent to induce apoptosis” and “weaker”, respectively. The “Body weight, End” value was determined as 24 ± 2 g with PC-3 tumors (IV 10 mpk) and 24 ± 3 g in the data set with PC-3 tumors (IV 20 mpk). Moreover, the “Tumor size, End” value was found to be 1774 ± 183 mm^3 in the data set with PC-3/TxR tumors (IV 10 mpk) and 999 ± 905 mm^3 in the data set with PC-3/TxR tumors (IV 20 mpk). Further, the “Tumor size, Start” value in the data set with PC-3/TxR tumors (IV 10 mpk) came to 143 ± 20 mm^3; in the data set with PC-3/TxR tumors (IV 20 mpk), 170 ± 86 mm^3. Also, the G2/M arrest entry with A375RF21 cells [3] (24 h) was “induced G2/M arrest”.
As for `COc1cc(C(=O)c2c[nH]c(-c3ccc(O)cc3)n2)cc(O)c1OC` [12kc], the IC50 in the data set on A375 was 10000 nM.
Turning to `COc1ccc(-c2nc(C(=O)c3ccc(F)cc3)c[nH]2)cc1` [12cb, (4-fluorophenyl)(2-(4-methoxyphenyl)-1H-imidazol-4-yl)methanone], in the data set with B16-F1 melanoma cells (20 nM), the “inhibition of colony formation” value was “effectively inhibited”. In addition, in [4], the “inhibition of metastasis of melanoma to the lungs” value (“inhibition … to the lungs” below) is reported as “inhibition”. For the same compound, at Bovine brain tubulin [1], the “inhibition of tubulin polymerization” value was “inhibited tubulin polymerization” and the inhibition at 10 µM is around 80%.
In data set [5], `O=C(c1ccc(F)cc1)c1c[nH]c(-c2ccccc2C(F)(F)F)n1` [12ib, (4-fluorophenyl)(2-(2-(trifluoromethyl)phenyl)-1H-imidazol-4-yl)methanone] came in with an IC50 of 1000 to 50000 nM.
For the compound `COc1cc(C(=O)c2c[nH]c(-c3ccc(C)cc3)n2)cc(OC)c1OC` [12da, (2-(p-tolyl)-1H-imidazol-4-yl)(3,4,5-trimethoxyphenyl)methanone], the “suppression of parental A375 melanoma tumor growth in vivo” value in data set [6] is recorded as “effective”. In the data set on A375RF21, the “calculated CI values, all concentrations tested” value is reported as 0.53-0.70. The “inhibition of colony formation” value in the data set with B16-F1 melanoma cells (20 nM) is on record as “effectively inhibited”. Also, the “effect on pERK or total ERK level” value in data set [7] (A375RF21, 48 h incubation) is on record as “no obvious effect”. In addition, the pAKT/tAKT inhibition result (with pAKT/tAKT in WM164 cells; in data set [8]) was “strong dose-dependent pAKT/tAKT inhibition effects” each time. The “inhibition … to the lungs” value in data set [4] is on record as “inhibition”. In addition, on Bovine brain tubulin [1], the “inhibition of tubulin polymerization” value is “inhibited tubulin polymerization”. Moreover, the IC50 was 19 nM in the data set on NCl/ADR-RES and 47 nM in the data set on OVCAR-8. Also, in the data set on A375RF21 cells [3] (24 h), the G2/M arrest entry was “induced G2/M arrest”.
In the case of `O=C(c1ccc(F)cc1)c1c[nH]c(-c2ccc(Cl)cc2)n1` [12fb, (2-(4-chlorophenyl)-1H-imidazol-4-yl)(4-fluorophenyl)methanone], in the data set on B16-F1 melanoma cells (100 nM), the “inhibition of colony formation” value is reported as “effective inhibition”. Also, the tolerability result in data set [9] is listed as “well tolerated dose”. For the same compound, the “inhibition … to the lungs” value in data set [4] is on record as “inhibition”.
With `O=C(c1ccc(F)cc1)c1c[nH]c(-c2ccc(OCc3ccccc3)cc2)n1` [12jb, (2-(4-(benzyloxy)phenyl)-1H-imidazol-4-yl)(4-fluorophenyl)methanone], the “fold increase in activity compared with the para-hydroxy compound 12kb” value in [5] (discussion of Table 9) was 440 fold.
In the case of `COc1cc(C(=O)c2c[nH]c(-c3cc(OC)c(OC)c(OC)c3)n2)cc(OC)c1OC` [12ea, (3,4,5-trimethoxyphenyl)(2-(3,4,5-trimethoxyphenyl)-1H-imidazol-4-yl)methanone], the IC50 in data set [5] was in the range of 1000 to 50000 nM.
Turning to `CCCS(=O)(=O)Nc1ccc(F)c(C(=O)c2c[nH]c3ncc(-c4ccc(Cl)cc4)cc23)c1F` [Vemurafenib], the “effect on tubulin polymerization” value with Bovine brain tubulin [10] is “did not significantly influence tubulin polymerization”; with Bovine brain tubulin [10] (listed as vemurafenib), “did not have any effect on tubulin polymerization”. The G0/G1 arrest entry with A375 cells [11] (A375, 1 μM, 24 h) was “effectively arrested”; in the data set with A375RF21 cells [3] (A375RF21, 1 μM, 24 h), “could not arrest”. The “concentration needed to produce G0/G1 cell cycle arrest” value with A375 cells [11] (parental A375, single agent) is “less than 1 μM”; with A375RF21 cells [3] (resistant A375RF21, single agent), at least 30 µM. Further, the IC50 in the data set with A375RF21 cells [12] (Homo sapiens, read-out: IC50 for proliferation inhibition) turned out to be 28900 ± 600 nM; in the data set on A375 cells [13], 570 ± 30 nM. Besides, in the data set on A375RF21 cells [12] (MTS assay), the “fold increase of IC50 in A375RF21 versus parental A375” value is given as “over 50 fold”. The “level of pAKT relative to tAKT” value in data set [7] (A375RF21, 48 h, quantified lane density) was determined as 70%. In the data set with A375RF21 cells [2], the “cell apoptosis or death (sum of Q1, Q2 and Q4)” value is 11.9±3.5%.

In general, inhibition refers to how much of the control response was suppressed.

Source of the values: patent publication US20180325872A1, “COMPOUNDS FOR TREATMENT OF CANCER” (UNIVERSITY OF TENNESSEE RESEARCH FOUNDATION, priority 2013, published 2018).
